Values of other authors in article PMC6572427, “Peptosome Coadministration Improves Nanoparticle Delivery to Tumors through NRP1-Mediated Co-Endocytosis” (Biomolecules, 2019).

Conditions: in vivo
Description: Therefore, its fluorescence signal can be used to reflect the integrity of peptosomes and estimate the in vivo plasma stability. […] Blood was then collected at different time points after the injection as described in the methods, and the fluorescence signals were detected using an IVIS Spectrum in vivo ...

plasma half-life: eight
Sequence: CRGDKGPDC [iRGD]
